Literature values as cited in US20250041318A1, “STERILANTS COMPOSITION, KITS AND METHODS OF USE THEREOF” (priority 2021, published 2025).
Where two headings read alike, the source gives them in different places.

Experiments:
pancreatic cancer = settings: preclinical mouse model of pancreatic cancer
[1] = tested on: LDH isozymes (LDH-A4, LDH-B4, LDH-C4)
[2] = target: LDH from goat testis (LDH-C4)
[3] = target: LDH from goat heart (LDH-B4)
[4] = target: LDH from goat liver (LDH-A4)
[5] = Lineweaver-Burk reciprocal plots

Structure (SMILES)	Efficacy compared with gemcitabine (pancreatic cancer)	IC50 ([1]; 3.3 mM lactic acid and 1.8 mM NAD at 25 degrees C. and pH 9.0, read-out: IC50 for the lactate oxidation)	Manner of inhibition when NAD and NADH were varied as substrates [1, 5]	Manner of inhibition with respect to pyruvate and lactate [1, 5]	Ki ([2]; read-out: Ki against NAD)	Ki ([2]; read-out: Ki against NADH)	Ki ([2]; read-out: Ki against lactate)	Ki ([2]; read-out: Ki against pyruvate)	Ki ([3]; read-out: Ki against NAD)	Ki ([3]; read-out: Ki against NADH)	Ki ([3]; read-out: Ki against lactate)	Ki ([3]; read-out: Ki against pyruvate)	Ki ([4]; read-out: Ki against NAD)	Ki ([4]; read-out: Ki against NADH)	Ki ([4]; read-out: Ki against lactate)	Ki ([4]; read-out: Ki against pyruvate)
CC(C)[C@]12O[C@H]1[C@@H]1O[C@]13[C@]1(O[C@H]1C[C@H]1C4=C(CC[C@@]13C)C(=O)OC4)[C@@H]2OCOP(=O)(O)O [Minnelide]	even more effective than gemcitabine	–	–	–	–	–	–	–	–	–	–	–	–	–	–	–
Cc1cc2c(C(C)C)c(O)c(O)c(C=O)c2c(O)c1-c1c(C)cc2c(C(C)C)c(O)c(O)c(C=O)c2c1O [gossypol]	–	125 µM	competitive	non-competitive	83 µM	45 µM	125 µM	29 µM	108 µM	43 µM	85 µM	34 µM	94 µM	33 µM	85 µM	20 µM
